Laboratory results: article PMC8004929, “Whole-Body Pharmacokinetics and Physiologically Based Pharmacokinetic Model for Monomethyl Auristatin E (MMAE)” (Journal of Clinical Medicine, 2021)
Where two headings read alike, the source gives them in different places. Square brackets hold non-standard residues; d marks the D form. Peptide text beside a SMILES is read from it. * marks the point of attachment. Dolaproine = CO[C@@H]([C@@H]1CCCN1)[C@@H](C)C(=O)O; Dil = CC[C@H](C)[C@H](NC)[C@@H](CC(=O)O)OC; X1 = C[C@@H](N*)[C@@H](O)c1ccccc1; NMeV = CN[C@H](C(=O)O)C(C)C

Legend:
[1] = following free MMAE administration; cited from earlier work
From the text: Our results regarding the blood cell distribution of MMAE were not consistent with the literature. The MMAE blood-to-plasma ratio is reported to be 2 [4] and 1.53–8.65 [8] in different studies, following free MMAE administration. Whereas, a lower blood-to-plasma ratio has been observed when MMAE-conjugated ADCs were administrated.

[2] = cited from earlier work
Experimental: The PBPK model well captured the PK in plasma, tissues, and tumor simultaneously. CLint was estimated with good precision (%CV = 8.92), and the optimized value was 137 mL/h. […] About 80% of MMAE excretes via feces, and only 6% excretes via urine. Therefore, we assumed that MMAE was eliminated only via metabolism and biliary/fecal excretion from the liver. […] For the derivation of CLint based on in vitro data, the CLint, vitro were estimated using human hepatocyte (3 µL/min/10^6 cells) and human ...

[3] = Whole-body biodistribution / PK study of MMAE in tumor-bearing mice (LC-MS/MS, NCA); type: in vivo; conditions: 0.1 mg/kg i.v.; for AUC0−t: observed conc. by LC-MS/MS, 3 mice per time point; for KPadj: KP adjusted for percentage of cellular volume in total tissue volume
From the text: Male athymic nude mice were purchased at the age of 6 weeks from Charles River (Wilmington, NC, USA). After acclimation to the new conditions for two weeks, mice were subcutaneously injected with MDA-MB-468 (about 10 million tumor cells) into the right dorsal flank. The in vivo study adhered to the Principles of Laboratory Animal Care (National Institutes of Health publication 85–23, revised 1985) and were approved by the University at Buffalo Institutional Animal Care and Use Committee (IACUC# PHC29035Y).
A total of 18 mice (6 weeks old, 26–35 g) bearing MDA-MB-468 xenografts were used for the biodistribution studies. Then, 0.1 mg/kg MMAE was injected into the mice via the penile vein, and terminal samples were collected at 5 min and 1, 6, 12, 24, and 168 h. Three mice were sacrificed at each time point. Whole blood, tissue, and tumor were harvested. The collected tissues included the heart, liver, lung, spleen, pancreas, kidney, skin, bone, muscle, fat, and brain. Whole blood samples in ethylenediaminetetraacetic acid (EDTA) pre-coated tubes were centrifuged at 2000× g for 20 min at 4 °C, and plasma was collected and stored at −20 °C for further analysis. Harvested tissue samples were blotted dry and immediately frozen in liquid nitrogen and stored at −80 °C until homogenization.
A detailed tissue homogenization procedure has been reported previously. Briefly, different volumes of RIPA buffer containing protease inhibitor were added into the weighted tissue samples to obtain different dilution factors in each tissue. The dilution factor was 5 for heart, liver, lung, spleen, pancreas, kidney, skin, and fat, 8 for bone and muscle, and 4 for brain samples. Tissue samples were homogenized using a BeadBug™ microtube homogenizer (Benchmark, USA) at the maximum speed for 15 s followed by a 30-s ice cool down, and repeated three times. Blood samples without dilution were directly homogenized for 30 s at maximum speed and were treated the same way as tissue samples.
Then, 500 µL acetonitrile containing 0.1% formic acid was added into 100 µL of plasma, tissue, or tumor homogenate samples and then spiked with 20 µL of IS solution (D8-MMAE 150 ng/mL). After vortexing and centrifugation at 15,000× g for 15 min at 4 °C, the supernatants were transferred to glass tubes and dried under nitrogen flow at 32 °C. The dried residuals were reconstituted with 60 µL of acetonitrile/water (95:5 v/v) containing 0.1% formic acid, gently vortexed, and immediately transferred into HPLC vials.
Standards and quality control samples (QCs) were prepared for plasma and each tissue matrix. Then, 250 µL of the control plasma or matrices were spiked with 20 µL of IS solution (D8-MMAE 150 ng/mL) and 10 µL of MMAE stock solution diluted with acetonitrile, and then, 500 µL of acetonitrile containing 0.1% formic acid was added. The final concentrations of standard were 0.5, 1, 10, 100, 200, and 500 ng/mL. QCs were prepared similarly for the final concentrations of […].
A Waters Acquity LC-MS/MS system was used with electrospray interphase and triple quadrupole mass spectrometer. An ACQUITY UPLC BEH Amide column (Waters, Milford, MA, USA) was used with 5 mM ammonium formate and 0.1% formic acid as the aqueous phase, and 0.1% formic acid and 1 mM ammonium formate were used as the organic phase. The gradient flow rate was 0.25 mL/min. The lower limit of quantification of MMAE was […] (or ng/g) for plasma, blood, tissues, and tumor.
Noncompartmental analysis (NCA) was conducted for plasma PK data. AUC computed from time 0 to the last observed concentration time (AUC0−t) was calculated using the linear/log trapezoidal method in WinNonlin (version 8.1, Pharsight, St. Louis, MO, USA). Blood to plasma ratios ( KP,BC ) and tissue partition coefficients ( KP,i ) were calculated using Equation (1), using AUC0−t values derived from the observed data. (1) KP,BC or KP,i=AUCi,0−t/AUCp,0−t, […]

[4] = NCA of plasma, tumor-bearing mice

CC[C@H](C)[C@@H]([C@@H](CC(=O)N1CCC[C@H]1[C@H](OC)[C@@H](C)C(=O)N[C@H](C)[C@@H](O)c1ccccc1)OC)N(C)C(=O)[C@@H](NC(=O)[C@@H](NC)C(C)C)C(C)C [MMAE, Monomethyl auristatin E] (H-[NMeV]V[Dil][Dolaproine]-X1)
blood-to-plasma ratio [1]: 2
in vitro CLint (CLint, vitro) ([2]; human liver hepatocyte): 3 µL/min/10^6 cells
in vitro CLint (CLint, vitro) ([2]; human liver microsome): 24 µL/min/mg
KP (tissue-to-plasma partition coefficient) ([3]; MDA-MB-468 tumor AUC0−t / plasma AUC0−t, tumor-bearing mice): 8.21
AUC0−t ([3]; MDA-MB-468 tumor, tumor-bearing mice): 0.619 µM·h
half-life [3, 4]: 2.5 h
systemic CL [3, 4]: 60 mL/h
volume of distribution (Vss) [3, 4]: 42 mL
plasma AUC from 0 to 12 h ([3]; NCA, tumor-bearing mice): 54.3 ng·h/mL
plasma AUC from 0 to infinite ([3]; NCA, tumor-bearing mice): 54.5 ng·h/mL
injected dose remaining in plasma ([3]; after 5 min, tumor-bearing mice): 0.3%
blood-to plasma ratio ([3]; at 6 h, tumor-bearing mice): ≈ 20
KP (partition coefficient) ([3]; blood (blood cell) AUC0−t / plasma AUC0−t, tumor-bearing mice): 5.46
KPadj ([3]; blood, tumor-bearing mice): 5.46
AUC0−t ([3]; blood, MDA-MB-468 tumor-bearing mice): 0.414 µM·h
KPadj ([3]; bone, tumor-bearing mice): 1.89
AUC0−t ([3]; bone, MDA-MB-468 tumor-bearing mice): 0.11 µM·h
KP (tissue-to-plasma partition coefficient) ([3]; brain AUC0−t / plasma AUC0−t, tumor-bearing mice): 0.411
KPadj ([3]; brain, tumor-bearing mice): 0.530
AUC0−t ([3]; brain, MDA-MB-468 tumor-bearing mice): 0.0312 µM·h
blood-to plasma ratio ([3]; early time-points (<30 min), tumor-bearing mice): about 6
KP (tissue-to-plasma partition coefficient) ([3]; fat AUC0−t / plasma AUC0−t, tumor-bearing mice): 2.43
KPadj ([3]; fat, tumor-bearing mice): 3.01
AUC0−t ([3]; fat, MDA-MB-468 tumor-bearing mice): 0.184 µM·h
decrease of MMAE concentration in the tumor ([3]; from 1 to 168 h, MDA-MB-468 tumor, mice): 50%
KP (tissue-to-plasma partition coefficient) ([3]; heart AUC0−t / plasma AUC0−t, tumor-bearing mice): 17.9
KPadj ([3]; heart, tumor-bearing mice): 22.8
AUC0−t ([3]; heart, MDA-MB-468 tumor-bearing mice): 1.356 µM·h
KP (tissue-to-plasma partition coefficient) ([3]; kidney AUC0−t / plasma AUC0−t, tumor-bearing mice): 31.6
KPadj ([3]; kidney, tumor-bearing mice): 42.4
AUC0−t ([3]; kidney, MDA-MB-468 tumor-bearing mice): 2.396 µM·h
KP (tissue-to-plasma partition coefficient) ([3]; liver AUC0−t / plasma AUC0−t (apparent, not adjusted for CLint), tumor-bearing mice): 2.42
KPadj ([3]; liver, tumor-bearing mice): 3.80
AUC0−t ([3]; liver, MDA-MB-468 tumor-bearing mice): 0.176 µM·h
exposure relative to plasma exposure, highly perfused tissues ([3]; lung > spleen > liver > heart, tumor-bearing mice): > 15 fold
KP (tissue-to-plasma partition coefficient) ([3]; lung AUC0−t / plasma AUC0−t, tumor-bearing mice): 35.3
KPadj ([3]; lung, tumor-bearing mice): 64.9
AUC0−t ([3]; lung, MDA-MB-468 tumor-bearing mice): 2.679 µM·h
KP (tissue-to-plasma partition coefficient) ([3]; muscle AUC0−t / plasma AUC0−t, tumor-bearing mice): 1.25
KPadj ([3]; muscle, tumor-bearing mice): 1.51
AUC0−t ([3]; muscle, MDA-MB-468 tumor-bearing mice): 0.0946 µM·h
KP (tissue-to-plasma partition coefficient) ([3]; pancreas AUC0−t / plasma AUC0−t, tumor-bearing mice): 2.11
KPadj ([3]; pancreas, tumor-bearing mice): 2.93
AUC0−t ([3]; pancreas, MDA-MB-468 tumor-bearing mice): 0.16 µM·h
AUC0−t ([3]; plasma, MDA-MB-468 tumor-bearing mice, linear/log trapezoidal): 0.0754 µM·h
KP (tissue-to-plasma partition coefficient) ([3]; skin AUC0−t / plasma AUC0−t, tumor-bearing mice): 1.71
KPadj ([3]; skin, tumor-bearing mice): 2.87
AUC0−t ([3]; skin, MDA-MB-468 tumor-bearing mice): 0.13 µM·h
KP (tissue-to-plasma partition coefficient) ([3]; spleen AUC0−t / plasma AUC0−t, tumor-bearing mice): 27.1
KPadj ([3]; spleen, tumor-bearing mice): 47.2
AUC0−t ([3]; spleen, MDA-MB-468 tumor-bearing mice): 2.056 µM·h
KP in the liver after accounting for CLint, without adjustments for the fractional cellular volume ([3]; tumor-bearing mice): 25.3
exposure relative to plasma exposure, fat, pancreas, skin, bone, and muscle ([3]; tumor-bearing mice): about 2 fold
time up to which MMAE concentration in the liver was quantifiable ([3]; tumor-bearing mice, LLOQ 0.2 ng/g): 6 h
Plasma concentration after 12 h ([3]; tumor-bearing mice, LLOQ 0.2 ng/mL, LC-MS/MS): below the limit of quantification
